Source: paper PMC3144732, “Rho-Rho kinase pathway in the actomyosin contraction and cell-matrix adhesion in immortalized human trabecular meshwork cells” (Molecular Vision, 2011)
“Also recorded” adds a separate entry of the source. Values belong to the compound of their own block, whether it stands above or below them.

Columns and labels:
[1] = system: GTM3 cells (actomyosin contraction); assay: Collagen gel contraction assay with GTM3 cells; format: cell-based, human; conditions: for increase in the gel area (relaxation) compared with the control: 10 μM
Experimental: A collagen gel contraction assay was performed as previously described. The wells of 24-well culture plates were coated with 1% BSA at 37 °C for 1 h. Glaucomatous trabecular meshwork cells were trypsinized and resuspended in culture medium at a density of 1×10^7 cells/ml. Rat-tail collagen Type I (BD Biosciences, San Jose, CA), 10× DMEM (Sigma, St. Louis, MO), reconstitution buffer (pH 7.3), TM cell suspension, and distilled water were mixed on ice to obtain a final concentration of 1.9 mg/ml of collagen and a final cell density of 2×10^5 cells/ml. The resultant mixture (0.5 ml) was added to each well of the BSA-coated culture clusters, and collagen gel formation was induced by incubation at 37 °C for 90 min. Serum-rich or serum-free DMEM (0.5 ml), without or with the drugs, was then added on top of the gels. After 1 h, the gels were freed from the walls of the culture wells. They were subsequently imaged every 24 h for 2 days. The area was calculated using NIH ImageJ software.

GTM3 cells = assay: Cell morphology (DIC), stress fibers and focal adhesions (F-actin, paxillin staining); format: cell-based, human; conditions: 1 h, serum-rich medium
Experimental: Cells were first treated for the indicated time period in the serum-rich medium described earlier. Following a brief rinse with PBS, cells were fixed with 4% paraformaldehyde for 10 min and then permeabilized with 0.1% Triton-X for 10 min. For phosphorylated MLC staining, cells were blocked with 10% goat serum + 3% BSA, and, for vinculin and paxillin staining, the cells were blocked with 10% FBS for 1 h. Cells were incubated in primary antibody overnight, followed by secondary antibody incubation for 1 h. Double staining for actin was performed by incubating cells in Texas-red conjugated phalloidin for 20 min. After extensive washing, coverslips were mounted using ProLong AntiFade (Molecular Probes, Eugene, OR). Images were acquired using a Leica SP5 (Leica Microsystems, Bannockburn, IL) confocal microscope. After similar treatments, DIC images of cells fixed on coverslips were also obtained using a Nikon E800 (Nikon Instruments, Melville, NY) microscope.

[2] = system: MYPT1 phosphorylation at Thr696; assay: Western blot of MYPT1 phosphorylation at Thr696 in GTM3 cells; format: cell-based, human; conditions: 1 h, serum-rich medium; for IC50: GTM3 cells, densitometry of western blot, read-out: IC50 for dephosphorylation of MYPT1 at Thr696
Experimental: (§1) Cell cultures of an immortalized human glaucomatous trabecular meshwork (GTM3) cell line were grown at 37 °C in 5% CO2 in Dulbecco’s Minimum Essential Medium (DMEM + Glutamax) supplemented with 10% fetal bovine serum and 10 μg/ml of gentamicin (Invitrogen, Grand Island, NY) as previously described. Upon reaching confluence, cells were divided using 0.05% trypsin. Cells of passages 13 to 20 were used in our experiments.
(§2) Following treatment with the desired drugs/agents, cells were rinsed in PBS and solubilized in 300 µl of 2× Laemmli sample buffer. The lysate was sonicated briefly and boiled for 5 min. Equal amounts of protein (30 μg) were loaded in 8% or 12% SDS–PAGE gels. Following electrophoresis, proteins were transferred to a nitrocellulose membrane (Biorad, Hercules, CA), blocked with 5% fat-free milk for 1 h, and incubated with specific phospho-MYPT1 or phospho-MLC antibodies overnight. The membranes were next incubated with the appropriate secondary antibodies for 1 h. The blots were finally washed and developed using an enhanced chemiluminescence kit (Pierce, Rockford, IL) according to the manufacturer’s instructions.
(§3) A one-way ANOVA was used to compare mean values for different treatments with Bonferroni’s post-test analysis (Prism 5.0 for Windows; GraphPad Software, Inc., San Diego, CA). Results are expressed as mean±SEM. For analysis of ECIS (electrical cell-substrate impedance sensing) data, normalized numerical values from individual experiments were pooled and expressed as mean±SEM. A p value of less than 0.05 was considered statistically significant. “n” denotes the number of independent experiments performed. […] The calculations assume that log [drug] versus response follow a sigmoidal shape and were performed with Prism 5.0. The reported values of R indicate goodness of fit.

[3] = system: MYPT1 phosphorylation at Thr853; assay: Western blot of MYPT1 phosphorylation at Thr853 in GTM3 cells; format: cell-based, human; conditions: 1 h, serum-rich medium; for effect on MYPT1 phosphorylation at Thr853: 5 μM; for IC50: GTM3 cells, densitometry of western blot, read-out: IC50 for dephosphorylation of MYPT1 at Thr853
Experimental: as §1, §2, §3

normal HTM cells = conditions: 10 μM; cited from earlier work
[4] = system: GTM3 cells (cell-matrix adhesion); assay: Electrical cell-substrate impedance sensing (ECIS), cell-matrix adhesion; format: cell-based, human
Experimental: Cells were seeded on gold electrode-plated culture plates (8W10E+) and placed in an incubator at 37 °C with humidified air and 5% CO2. The attachment and spreading of the cells on electrodes was monitored continuously at 4 kHz until the observed electrical resistance reached a plateau and stabilized. This usually occurred within 20–24 h after inoculation. Impedance to current flow was measured at different frequencies (25 Hz to 60 kHz) periodically before and after inoculation. After reaching the steady-state of electric-cell substrate resistance, cells were exposed to the ROCK inhibitors, and the impedance was assessed at different frequencies every 30 min. The change in the measured resistance normalized to that of the bare electrode was taken as a measure of cell-matrix adhesion as discussed further below.
ECIS involves the measurement of impedance to a small AC current applied across cells grown to confluence on planar gold microelectrodes. The measurement is non-invasive, and off-the-shelf instruments such as ECIS^TM 1600R (Applied Biophysics, Inc., Troy, NY) make use of a lock-in amplifier to measure small changes in electrical impedance at a high-temporal resolution. We have previously employed ECIS to assess the integrity of the apical junctional complex of the corneal endothelial monolayers. For epithelial monolayers, such as the corneal endothelium, the resistive component of the measured impedance implies trans-endothelial electrical resistance for current flow between the cells when confluent on the electrode. However, with non-epithelial cells, such as fibroblasts, measured impedance arises mainly out of resistance to current flow across the cell substrate (i.e., cell-matrix adhesion). In this study, we examined the dynamics of such cell-matrix resistance (i.e., resistive component of the measured impedance) with TM cells. […] This increase can be attributed to the attachment of cells to the substrate (gold electrode), which leads to an increased resistance to current flow. […]

MLC phosphorylation = assay: Western blot of MLC phosphorylation (ppMLC) in GTM3 cells; format: cell-based, human; conditions: 1 h, serum-rich medium, densitometry of western blot, read-out: IC50 for dephosphorylation of MLC
Experimental: as §1
as §2, with “The blots were finally washed and developed using an enhanced chemiluminescence kit (Pierce, Rockford, IL) according to the manufacturer’s instructions.” left out
A one-way ANOVA was used to compare mean values for different treatments with Bonferroni’s post-test analysis (Prism 5.0 for Windows; GraphPad Software, Inc., San Diego, CA). Results are expressed as mean±SEM. For analysis of ECIS (electrical cell-substrate impedance sensing) data, normalized numerical values from individual experiments were pooled and expressed as mean±SEM. […]

[5] = system: FAK (Tyr397) phosphorylation; assay: Serum-induced tyrosine phosphorylation of FAK (Tyr397), western blot; format: cell-based, human; conditions: 1 μM pretreatment, 10% serum added to serum-starved cells
[6] = system: paxillin (Tyr118) phosphorylation; assay: Serum-induced tyrosine phosphorylation of paxillin (Tyr118), western blot; format: cell-based, human; conditions: 1 μM pretreatment, 10% serum added to serum-starved cells
[7] = rabbits; cited from earlier work

Compound: Cc1ccc2c(c1)C(=O)C1(O)CCN(c3ccccc3)C1=N2 (stereo not shown) [blebbistatin]
increase in the gel area (relaxation) compared with the control ([1]; 48 h, 10% serum): 102±1.3%

IC50 [2]: 2270 nM
IC50 [3]: 658 nM
IC50 (MLC phosphorylation): 1060 nM
Compound: C[C@@H](N)[C@H]1CC[C@H](C(=O)Nc2ccncc2)CC1 [Y-27632]
change in cell shape (DIC images) (GTM3 cells; 5 μM): apparent shrinkage, with cells assuming a stellate appearance
effect on stress fibers and focal adhesions (GTM3 cells; 5 μM): complete loss of stress fibers and focal adhesions
effect on MYPT1 phosphorylation at Thr696 ([2]; 5 μM): comparatively smaller reduction; also recorded: only slightly reduced; also recorded: only a marginal decrease
effect on MYPT1 phosphorylation at Thr853 [3]: complete dephosphorylation
gel contraction allowed (normal HTM cells): 30%
change in electrical cell-substrate resistance ([4]; 5 μM, up to 2 h): significant decrease in the peak resistance
increase in the gel area (relaxation) compared with the control ([1]; 48 h, 10% serum): 50%

Compound: C=C1[C@@H](C)[C@H]2[C@H](Cc3ccccc3)NC(=O)[C@]23[C@H](OC(C)=O)/C=C/[C@@](C)(O)C(=O)[C@@H](C)C/C=C/[C@H]3[C@@H]1O [cytochalasin D]
change in electrical cell-substrate resistance ([4]; 0.125 mg/ml): significant decrease in the measured resistance; also recorded: substantial decrease in the resistance

IC50 [2]: 177 nM
IC50 [3]: 15 nM
IC50 (MLC phosphorylation): 14 nM
Compound: C[C@@H](N)c1ccc(C(=O)Nc2ccnc3[nH]ccc23)cc1 [Y-39983]
change in cell shape (DIC images) (GTM3 cells; 1 μM): apparent shrinkage, with cells assuming a stellate appearance
effect on stress fibers and focal adhesions (GTM3 cells; 1 μM): complete loss of stress fibers and focal adhesions
effect on stress fibers and focal adhesions (GTM3 cells; 5 μM): loss of stress fibers
effect on serum-induced tyrosine phosphorylation of FAK at Tyr397 [5]: opposed
effect on MYPT1 phosphorylation at Thr853 [3]: complete dephosphorylation
change in electrical cell-substrate resistance ([4]; 1 μM, up to 2 h): significant decrease in resistance; also recorded: rapid and more pronounced
effect on serum-induced phosphorylation of paxillin at Tyr118 [6]: opposed
decrease in IOP compared to Y-27632 [7]: 10 fold
increase in the gel area compared with the control ([1]; 1 μM, 48 h, 10% serum): 86±5%
decrease in the contraction of the collagen gels ([1]; 5 μM): 100%
